Test results reported in PubChem BioAssay AID1963865 (Molecular Pharmacology Branch, DTP, NCI, 2024).
pIC50: −log10 of the molar value.

System: KRAS PDC multicell spheroid viability
Test: Anticancer human tumor 825966-067-R-J1-PDC patient-derived colon carcinoma cell line growth inhibition [KRAS2]
Settings: for pIC50: curve of first compound; for viability, T/C: stronger effect = lower value
Procedure, shortened: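 KRAS-mutant tumor cells were grown as spheroids with HUVEC endothelial cells and human MSCs as stroma. Targeted agents were tested alone and with KRAS pathway inhibitors. Doses started at or near clinical Cmax, or 10 microM, descending half-log.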

[1] = second compound 0.1 µM, first compound 0.0316 µM
[2] = second compound 0.1 µM, first compound 0.1 µM
[3] = second compound 0.1 µM, first compound 0.316 µM
[4] = second compound 0.1 µM, first compound 1 µM
[5] = second compound 0.1 µM, first compound 3.16 µM
[6] = second compound 0.316 µM, first compound 0.0316 µM
[7] = second compound 0.316 µM, first compound 0.1 µM
[8] = second compound 0.316 µM, first compound 0.316 µM
[9] = second compound 0.316 µM, first compound 1 µM
[10] = second compound 0.316 µM, first compound 3.16 µM
[11] = second compound 1 µM, first compound 0.0316 µM
[12] = second compound 1 µM, first compound 0.1 µM
[13] = second compound 1 µM, first compound 0.316 µM
[14] = second compound 1 µM, first compound 1 µM
[15] = second compound 1 µM, first compound 3.16 µM
[16] = second compound 3.16 µM, first compound 0.0316 µM
[17] = second compound 3.16 µM, first compound 0.1 µM
[18] = second compound 3.16 µM, first compound 0.316 µM
[19] = second compound 3.16 µM, first compound 1 µM
[20] = second compound 3.16 µM, first compound 3.16 µM
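Further: spheroids exposed to compounds for 7 days.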
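Wherever viability, T/C is given: 100% = DMSO vehicle control viability.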

Compound	pIC50 (second compound 0.1 µM)	pIC50 (second compound 0.316 µM)	pIC50 (second compound 1 µM)	pIC50 (second compound 3.16 µM)	viability, T/C [1] [%]	viability, T/C [2] [%]	viability, T/C [3] [%]	viability, T/C [4] [%]	viability, T/C [5] [%]	viability, T/C [6] [%]	viability, T/C [7] [%]	viability, T/C [8] [%]	viability, T/C [9] [%]	viability, T/C [10] [%]	viability, T/C [11] [%]	viability, T/C [12] [%]	viability, T/C [13] [%]	viability, T/C [14] [%]	viability, T/C [15] [%]	viability, T/C [16] [%]	other results
CC(=O)OC12COC1CC(O)C1(C)C(=O)C(O)C3=C(C)C(OC(=O)C(O)C(NC(=O)OC(C)(C)C)c4ccccc4)CC(O)(C(OC(=O)c4ccccc4)C21)C3(C)C (stereo not given) + C=CC(=O)N1CCN(c2nc(OCC3CCCN3C)nc3c2CCN(c2cccc4cccc(C)c24)C3)CC1CC#N	> 8.00	> 8.00	> 8.00	> 8.00	29.6	32.1	22	28.6	35.9	21.2	25.4	24.5	26.2	27.3	25	30	20	27	26.1	23.2	pIC50 (second compound 0.0316 µM): > 8.00; viability, T/C (second compound 0.0316 µM, first compound 0.01 µM): 24.8%; viability, T/C (second compound 0.0316 µM, first compound 0.0316 µM): 28%; viability, T/C (second compound 0.0316 µM, first compound 0.1 µM): 23.1%; viability, T/C (second compound 0.0316 µM, first compound 0.316 µM): 23.1%; viability, T/C (second compound 0.0316 µM, first compound 1 µM): 24.5%; viability, T/C (second compound 0.0316 µM, first compound 3.16 µM): 40.3%; viability, T/C (second compound 0.1 µM, first compound 0.01 µM): 27%; viability, T/C (second compound 0.316 µM, first compound 0.01 µM): 23%; viability, T/C (second compound 1 µM, first compound 0.01 µM): 28.6%; viability, T/C (second compound 3.16 µM, first compound 0.01 µM): 31.7%; viability, T/C [17]: 21.2%; viability, T/C [18]: 23.8%; viability, T/C [19]: 17.2%; viability, T/C [20]: 29.6%
CCNC(=O)CC1N=C(c2ccc(Cl)cc2)c2cc(OC)ccc2-n2c(C)nnc21 (stereo not given) + C=CC(=O)N1CCN(c2nc(=O)n(-c3c(C)ccnc3C(C)C)c3nc(-c4c(O)cccc4F)c(F)cc23)C(C)C1	< 5.00	< 5.00	< 5.00	< 5.00	81	80.9	108	111	99.5	79.6	76.6	68	104	85.6	80.9	91.5	102	83.3	83.9	74.8	pIC50 (second compound 10 µM): 5.89; viability, T/C (second compound 0.1 µM, first compound 10 µM): 81.8%; viability, T/C (second compound 0.316 µM, first compound 10 µM): 85.2%; viability, T/C (second compound 1 µM, first compound 10 µM): 63.6%; viability, T/C [17]: 82.3%; viability, T/C [18]: 98.3%; viability, T/C [19]: 91.8%; viability, T/C [20]: 50.1%; viability, T/C (second compound 3.16 µM, first compound 10 µM): 61.5%; viability, T/C (second compound 10 µM, first compound 0.0316 µM): 104%; viability, T/C (second compound 10 µM, first compound 0.1 µM): 72.5%; viability, T/C (second compound 10 µM, first compound 0.316 µM): 95.4%; viability, T/C (second compound 10 µM, first compound 1 µM): 54.3%; viability, T/C (second compound 10 µM, first compound 3.16 µM): 32.4%; viability, T/C (second compound 10 µM, first compound 10 µM): 36.9%
